{"source": "paper PMC11348189", "about": "“Disorder-to-order active site capping regulates the rate-limiting step of the inositol pathway” (Proceedings of the National Academy of Sciences of the …, 2024)", "key": {"[1]": {"biological_target": "T1, endogenous fungal MIPS (myo-inositol-1-phosphate synthase) (Thermochaetoides thermophila, UniProt G0SDP4)", "T1 construct": "gene CTHT_0052500; native full-length enzyme in SEC fraction of T. thermophila cell extract, no tag; 240 kDa homotetramer; residues 40-552 resolved", "T1 sequence (G0SDP4 1-552)": "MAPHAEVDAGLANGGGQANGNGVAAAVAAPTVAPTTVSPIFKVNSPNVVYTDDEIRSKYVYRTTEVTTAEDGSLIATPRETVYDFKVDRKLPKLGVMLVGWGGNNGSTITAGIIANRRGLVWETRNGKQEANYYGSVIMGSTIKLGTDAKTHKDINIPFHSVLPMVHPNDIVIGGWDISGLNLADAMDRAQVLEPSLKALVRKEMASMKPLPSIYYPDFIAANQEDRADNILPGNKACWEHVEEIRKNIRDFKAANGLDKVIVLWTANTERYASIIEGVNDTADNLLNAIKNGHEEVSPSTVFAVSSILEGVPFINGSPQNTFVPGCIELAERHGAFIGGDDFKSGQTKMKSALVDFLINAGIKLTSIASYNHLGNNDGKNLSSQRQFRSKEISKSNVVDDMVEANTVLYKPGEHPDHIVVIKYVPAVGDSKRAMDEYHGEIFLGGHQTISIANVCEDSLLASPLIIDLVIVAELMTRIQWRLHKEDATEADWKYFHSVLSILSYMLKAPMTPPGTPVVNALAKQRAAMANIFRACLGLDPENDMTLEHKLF", "test": "cryo-EM structure ([…] Å)", "format": "binding", "details": "endogenously bound in all four active sites; native SEC fraction, pH 7.4; monovalent cation (probably K+) near NAD"}, "[2]": {"biological_target": "T1, endogenous fungal MIPS (myo-inositol-1-phosphate synthase)", "test": "phosphate release after periodate oxidation, molybdate, […] nm", "format": "biochemical", "details": "SEC fraction of cell extract; 5 mM G6P, 0.8 mM NAD+, 14 mM ammonium acetate, 2 mM DTT, 100 mM Tris-acetate pH 8, 37 °C"}}, "data": [{"smiles": "NC(=O)c1ccc[n+]([C@@H]2O[C@H](COP(=O)(O)OP(=O)(O)OC[C@H]3O[C@@H](n4cnc5c(N)ncnc54)[C@H](O)[C@@H]3O)[C@@H](O)[C@H]2O)c1", "note": "[NAD^+]", "values": [{"measurement": "cryo-EM structure (2.48 Å)", "setting": "[1]", "value": "allowing for the unambiguous placement of the cofactor NAD (Fig. 2A)"}]}, {"smiles": "O=P(O)(O)OC[C@H]1OC(O)[C@H](O)[C@@H](O)[C@@H]1O", "note": "(some centres unmarked) [glucose-6-phosphate]", "values": [{"measurement": "phosphate release after periodate oxidation, molybdate, 820 nm", "setting": "[2]", "value": "probe the identified fractions for their capacity to convert G6P to IMP"}]}]}
